Reference: patent US20260219274A1, “POLYOL SWEETNERS AND CARDIOVASCULAR AND THROMBOTIC EVENT RISK” (THE CLEVELAND CLINIC FOUNDATION, priority 2023, published 2026)

Experiments:
[1] = test system: C57BL/6J mice; assay: Carotid artery FeCl3 injury thrombosis model; type: in vivo; conditions: for rate of clot / thrombus formation / time to cessation of blood flow following arterial injury: 25 mg/kg i.p. vs vehicle (saline)
Method: Mice were used to causally test whether elevation in xylitol plasma levels results in enhancement in thrombosis potential. All mice were C57BL/6J and 12-14 weeks of age. All animal studies were approved by the Institutional Animal Care and Use Committee at the Cleveland Clinic (IRB 2019-2251).
The FeCl3-induced carotid artery injury model was performed using intravital fluorescence microscopy with continuous image capture monitoring, as previously described.^44 Time to cessation of blood flow through thrombus formation for all experiments was determined by visual inspection by two independent investigators.
The FeCl3-induced carotid artery injury model was performed as previously described.^9 BL/6J mice, both male and female, 12-14 weeks of age, were i.p. injected with vehicle (saline) or xylitol (25 mg/kg). The animals were anesthetized with 100 mg/kg ketamine+10 mg/kg xylazine and rhodamine 6G (100 μL; 0.5 mg/mL, catalogue #252433, Sigma, St. Louis, MO, USA) was injected into the right jugular vein for platelet labeling. The left carotid artery was then exposed, and an injury induced using a 1 mm^2 Whatman filter paper containing 10% FeCl3 (Catalogue #157740, Sigma, St. Louis, MO, USA) for 1 min. Thrombus formation in real time was monitored using intravital fluorescence microscopy equipped with video recording. Time to cessation of blood flow through thrombus formation for all experiments was determined by visual inspection by two independent investigators and animals were immediately euthanized after data acquisition.
The common carotid artery FeCl3 induced injury model was performed as previously described^54. 12-14 weeks old BL/6J mice were injected with vehicle (normal saline), erythritol (25 mg/kg) or 1,5-AHG (25 mg/kg) and anesthetized with 100 mg/kg ketamine+10 mg/kg xylazine. Rhodamine 6G (100 μL; 0.5 mg/mL, catalogue #252433, Sigma, St. Louis, MO, USA) was injected into the right jugular vein to label platelets. The left carotid artery was then injured with a Whatman filter paper of 1 mm^2 size containing 10% FeCl3 (Catalogue #157740, Sigma, St. Louis, MO, USA) for 1 min. Intravital fluorescence microscopy equipped with video recording was used to monitor thrombus formation in real time. Time to cessation of blood flow through clot formation for all studies was determined by visual inspection of captured video by two independent investigators in real time. Data for the in vivo thrombosis were collected by Streampix 7—Multiple Camera DVR Software (NorPix Inc, Montreal, Canada). Animals were immediately euthanized after data acquisition.

[2] = test system: washed human platelets; assay: Platelet flow cytometry assay (P-selectin, PAC-1); type: cell-based; conditions: for ADP-stimulated P-selectin surface expression / ADP-stimulated glycoprotein α2β3 (GP IIb/IIIa) activation: pre-incubation with the polyol, ADP 2 μM
Method: Antibody staining of washed platelets for flow cytometry was performed as described previously^41 with further information outlined in additional methods. […]
Washed platelets and antibody staining for flow cytometry was performed as described previously using sodium citrate (0.109 M) as anti-coagulant^51. Washed platelets were separated by centrifugation at 500×g for 10 min and re-suspended in modified Hank's buffered salt solution without PGE1. Final platelet suspensions (100 μL; 2×10^8 platelets/mL) were then pre-incubated with erythritol, glucose or 1,5-AHG (at indicated concentrations) for 30 min at 22° C. Platelets were then stimulated with 2 μM ADP for 10 min and incubated with PE conjugated anti-P-selectin (CD62P-PE, Catalogue #555524, BD PharMingen, San Diego, CA, USA; 2.5 μL/100 μL) or Fluorescein isothiocyanate (FITC) conjugated PAC1 (binds only to active conformation of GP IIb/IIIa, Catalogue #3 40507, BD PharMingen, San Diego, CA, USA; 5 μL/100 μL) or isotype control antibody (PE IgG isotype control, Catalogue #555749 or FITC IgM Isotype control, Catalogue #555583, BD PharMingen, San Diego, CA, USA) in the dark for 20 min. The platelet suspensions were then fixed with 100 μL of 2% paraformaldehyde. Data was acquired on a flow cytometer (FACS LSR Fortessa, BD Biosciences, Franklin Lakes, New Jersey, USA). Twenty thousand (20,000) events were collected. The data was analyzed with FACSDiva Software (v.9.0) (BD Biosciences). Platelets were gated to exclude doublets (FIG. 28) and the raw mean fluorescent intensity (MFI) of either P-selectin (CD62P) or PAC-1 was quantified.

SMILES | rate of clot / thrombus formation [1] | time to cessation of blood flow following arterial injury [1] | ADP-stimulated P-selectin surface expression [2] | ADP-stimulated glycoprotein α2β3 (GP IIb/IIIa) activation [2] | erythritol concentration eliciting significant stimulus-dependent enhancement in P-selectin surface expression ([2]; threshold, FIG. 17) [µM] | erythritol concentration eliciting significant stimulus-dependent enhancement in activated GP IIbIIIa surface expression ([2]; threshold, FIG. 17) [µM] | plasma xylitol level at which heightened thrombosis potential was observed ([1]; animal model of thrombosis (FIG. 4B)) [µM]
OC[C@@H](O)[C@@H](O)CO [erythritol] | marked enhancement | significant reduction | dose-dependent enhancement | dose-dependent enhancement | 18 | 4.5 | 
OC[C@@H](O)[C@H](O)[C@@H](O)CO [xylitol] | marked increase | significant reduction | dose-dependent enhancement | dose-dependent enhancement |  |  | 19
